Experimental findings from US11071727B2, “Therapeutic targeting of proteolytic cleavage of the mixed lineage leukemia gene product (MLL1) by taspase1 using kinase inhibitors” (Northwestern University, priority 2018, dated 2021) are described below.

The structures appear in SMILES notation.

For one series, the system named is MLL-AF9 leukemia. Nature of the series: MLL-AF9 syngeneic leukemia mouse model. Format: in vivo. On the procedure: (§1) FIG. 7. CKII inhibition delays the leukemia progression and improves survival of MLL-AF9 mice and MOLM13 human leukemia mice. (A) Timeline of the MLL-AF9 leukemia mouse model and CKII inhibitor treatment. Drug treatments were started at day 10 after transplantation. (B) Kaplan-Meier survival curves of secondary transplanted C57BL/6 mice after vehicle and CX-4945 treatment at day 10. Vehicle or CX-4945 (50 mg/kg or 75 mg/kg) were administered twice daily by oral gavage for a total of twenty treatments. Leukemia was confirmed at the endpoint for each transplant mouse. The number (n) indicates the number of mice in each group. The p values were calculated using the log rank test. (C) Timeline of the MOLM13 human leukemia xenograft mice. Drug treatments were started at day 5 after transplantation. (D) Kaplan-Meier survival curves of NSGS mice after vehicle and CX-4945 treatment. Vehicle or CX-4945 (50 mg/kg) were administered twice daily by oral gavage for a total of twenty treatments. Leukemia was confirmed at the endpoint for each transplant mouse by flow cytometry, H&E staining and histology analysis. The number (n) indicates the number of mice in each group. The p value was calculated using the log rank test. (E) Taspase1 cleavage regulation of MLL1 mediated by CKII phosphorylation. MLL1 cleavage by taspase1 primed the protein to degradation pathway. […]

The subject of the next series is MOLM13 cells. Nature of the series: MOLM13 human leukemia xenograft mouse model. The format is in vivo. As for the experimental part: as §1, with “analysis. […]” for “analysis. The number (n) indicates the number of mice in each group.”, “test.” for “test. (E) Taspase1 cleavage regulation of MLL1 mediated by CKII phosphorylation. MLL1 cleavage by taspase1 primed the protein to degradation pathway.”
MLL Murine Xenograft Transplantation and Treatment. […] Mice were monitored for illness including signs of lethargy, ruffled coat, and/or hind limb paralysis at which time mice were sacrificed for analysis. […]
(In general: In xenograft studies the graft and the host belong to different species.)

As to `O=C(O)c1ccc2c(c1)nc(Nc1cccc(Cl)c1)c1ccncc12` [CX-4945, 5-(3-chlorophenylamino)benzo[c][2,6]naphthyridine-8-carboxylic acid], in the series with MLL-AF9 leukemia (C57BL/6 mice, 50 mg/kg or 75 mg/kg twice daily by oral gavage, twenty treatments from day 10), the “leukemia progression and survival” value is “significantly delayed the leukemia progression and improved the survival”. For the same compound, the “weight of the mice” value in the series with MLL-AF9 leukemia (MLL-AF9 syngeneic mouse model, compared with vehicle control group) is “did not affect the weight of the mice”; in the series with MOLM13 cells (MOLM13 human leukemia xenograft mouse model, compared with vehicle control group), “did not affect the weight of the mice”. Besides, the leukemia free survival entry in the series with MOLM13 cells (NSGS mice, 50 mg/kg twice daily by oral gavage for ten days, from day 5) is recorded as “significantly lengthened”.
